Read-outs that look alike come from different tables or passages of the source.
Columns and labels:
[1] = tested on: proinflammatory (M1) and anti-inflammatory (M2) markers in splenic and CNS infiltrating macrophages; experiment: Ex vivo analysis of M1 and M2 markers in macrophages of EAE rats by realtime PCR; parameters: species or system rat; conditions: macrophages of compound treated EAE rats, splenic macrophages harvested at day 13 post MBP-immunization
Protocol: Ex vivo analysis of proinflammatory (M1) and anti-inflammatory (M2) markers in control and compound treated EAE rats. Splenic macrophages were harvested at day 13 post MBP-immunization and assayed for expression of a variety of markers by realtime PCR. CNS infiltrating cells were harvested and macrophages were analyzed for expression of M1 and M2 markers by realtime PCR.

[2] = tested on: experimental autoimmune encephalomyelitis (EAE) rats; experiment: Rat experimental autoimmune encephalomyelitis (EAE) model, preventive treatment; type: in vivo; conditions: compound administered from day 0 until day 22
Protocol: A further study was carried out to study the impact of Lp-PLA2 inhibitors on modulating M1/M2 imbalance. In this study, rats were induced to develop experimental autoimmune encephalomyelitis (EAE) by immunization with myelin basic protein (MBP) antigen and treated with a known Lp-PLA2 inhibitor: 5-((9-Methoxy-4-oxo-6,7-dihydro-4H-pyrimido[6,1-a]isoquinolin-2-yl)oxy)-2-(3-(trifluoromethyl)phenoxy)benzonitrile (See PCT application no. PCT/CN2011/001597). In this preventive treatment model, the compound was administered at day 0 (day of immunization) and continued to administer until day 22. The study lasted for 25 days. Rats were subsequently monitored for symptoms of EAE. Rats were immunized with MBP to develop EAE and symptoms were monitored daily. Plasma Lp-PLA2 activity, OxLDL, and LysoPC concentration were determined at different time points through the course of EAE.

[3] = target: T1, recombinant human Lp-PLA2 (Homo sapiens, UniProt Q13093); experiment: (1b) hrThioPAF assay, recombinant human Lp-PLA2; type: biochemical; conditions: Examples 266-412 were tested here, one experiment or average of multiple experiments, read-out: rhLp-PLA2 (pIC50) (converted)
T1 sequence (Q13093 22-441): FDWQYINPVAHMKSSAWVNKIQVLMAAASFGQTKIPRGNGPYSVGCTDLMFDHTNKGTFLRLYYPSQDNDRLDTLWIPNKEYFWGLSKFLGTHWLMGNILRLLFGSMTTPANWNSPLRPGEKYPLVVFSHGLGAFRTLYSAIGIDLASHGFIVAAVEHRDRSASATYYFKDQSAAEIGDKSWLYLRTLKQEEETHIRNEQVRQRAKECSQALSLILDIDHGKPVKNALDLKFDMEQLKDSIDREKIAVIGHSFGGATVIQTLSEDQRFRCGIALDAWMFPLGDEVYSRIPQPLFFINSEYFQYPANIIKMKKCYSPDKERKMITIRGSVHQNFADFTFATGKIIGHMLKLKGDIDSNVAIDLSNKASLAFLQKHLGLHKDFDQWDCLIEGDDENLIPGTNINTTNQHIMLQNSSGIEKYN
Procedure, shortened: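 Fluorogenic assay: 20 pM rhLp-PLA2 in 50 mM HEPES pH 7.4, 150 mM NaCl, 1 mM CHAPS with 1:3 serially diluted compounds; substrate mix of 40 μM 2-thio-PAF, 40 μM CPM, 400 μM NEM (pre-addition levels). 20 min at 25 °C in the dark; fluorescence ex 380/em 485 nm, pIC50 by curve fitting.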

Lp-PLA2 in human plasma = target: T2, Lp-PLA2 in human plasma (Homo sapiens, UniProt Q13093); experiment: (3b) Lp-PLA2 human plasma alternative Thio-PAF assay; type: biochemical; conditions: pooled human plasma, read-out: pIC50 in the Lp-PLA2 human plasma assay (converted)
T2 construct: from tissue; host or cells: pooled human plasma
T2 sequence (Q13093 22-441): T1 sequence (Q13093 22-441)
Procedure, shortened: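 Pooled human plasma was preincubated with compound for 15 min at RT. Substrate solution (2 mM 2-thio-PAF, 52 μM CPM, 2.5 mM NEM in 50 mM HEPES pH 7.4, 150 mM NaCl, 1 mM CHAPS; pre-addition concentrations) was added, and the reaction was quenched with 5% TFA after 3 min. Fluorescence was read at ex 380/em 485 nm and fitted to give pIC50.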

[4] = (3b) alternative Thio-PAF assay, Examples of 266-412 were tested here

| IC50 [3] [nM] | IC50 (Lp-PLA2 in human plasma; (3a) Thio-PAF assay, Examples 1-265 and 413-430 were tested here) [nM] | IC50 (Lp-PLA2 in human plasma; [4]) [nM] | SMILES | M1 (proinflammatory) markers [1] | M2 (anti-inflammatory) markers [1] | plasma Lp-PLA2 activity ([2]; rat EAE plasma) | plasma LysoPC levels ([2]; rat EAE plasma) | clinical disease (symptoms of EAE) ([2]; rats immunized with MBP, study lasted 25 days) |
| --- | --- | --- | --- | --- | --- | --- | --- | --- |
|  |  |  | COc1ccc2c(c1)CCn1c-2cc(Oc2ccc(Oc3cccc(C(F)(F)F)c3)c(C#N)c2)nc1=O [5-((9-Methoxy-4-oxo-6,7-dihydro-4H-pyrimido[6,1-a]isoquinolin-2-yl)oxy)-2-(3-(trifluoromethyl)phenoxy)benzonitrile] | decrease | increase | decreased | decreased | reduction in clinical disease |
| ≤ 1 | ≤ 10000 | ≤ 100 | O=c1nc(OCc2cc(F)c(Oc3cncc(C(F)(F)F)c3)c(F)c2)cc2n1CC1(CCN(Cc3ccccc3)CC1)N2 [Example 411, 1′-Benzyl-7-((3,5-difluoro-4-((5-(trifluoromethyl)pyridin-3-yl)oxy)benzyl)oxy)-1H-spiro[imidazo[1,2-c]pyrimidine-2,4′-piperidin]-5(3H)-one] |  |  |  |  |  |
| ≤ 10000 |  | ≤ 100 | CC(C)OC(=O)N1CCN2c3cc(OCc4ccc(F)c(F)c4)nc(=O)n3CC2C1 (stereo not shown) [Example E307, Isopropyl 7-((3,4-difluorobenzyl)oxy)-9-oxo-3,4,11,11a-tetrahydro-1H-pyrazino[1′,2′:3,4]imidazo[1,2-c]pyrimidine-2(9H)-carboxylate] |  |  |  |  |  |
